Consider 11 compounds from patent US10919889B2, “Chiral heterocyclic compound with hedgehog pathway antagonist activity, method and use thereof” (SUZHOU KINTOR PHARMACEUTICALS, INC., priority 2016, dated 2021).

For assay [1], the system named is Hh signaling pathway. In words: NIH3T3-GRE-Luc luciferase reporter assay (primary assay). The class given is cell-based. The text has this: NIH3T3 cells (CRL-1658, ATCC) were maintained in DMEM (Gibico) supplemented with 10% FBS (Hyclone). GRE-Luc plasmid was generated by inserting 8×Gli-1 responsive element (GRE) into the multiple cloning site of pGL4.26 vector (Promega). NIH3T3-GRE-Luc reporter cell line was established by hygromycin (Invitrogen) selection after transfected with GRE-Luc luciferase reporter plasmid. Single clones were validated by the induction of luciferase by recombinant sonic hedgehog (sHh) protein or small molecule agonist SAG (ABIN629346). Selected clone was used to monitor the Hh signaling.
The NIH3T3-GRE-Luc cells were maintained in complete culture medium (DMEM with 4 mM L-Gln, 1.5 g/L sodium bicarbonate and 4.5 g/L glucose supplemented with 100 μg/mL hygromycin and 10% FBS). When confluent, the cells were trypsinized and re-suspended in assay medium (0.5% serum-containing DMEM). After 100 µL/well of cells suspension was added to the 96-well-plate (Final cell concentration is 15,000 cells/well), cells were cultured for additional 48 hours before adding the compounds.
Compounds were serially diluted in DMSO and further diluted with assay medium. In an embodiment, 10 nM SAG was added in assay medium as the agonist of Hh signaling. After the compounds and agonist were prepared, the medium was removed carefully. 100 μL of assay medium containing compound and agonist was added to the cell with care. Cell plates were incubated at 37° C. for additional 48 hours.
Following the 48 hours incubation, 40 μL/well of luciferase media (Brigh-Glo, Promega) was added to the cells. The plate was incubated at room temperature for 5 minutes under gentle shaking. Luminescence signal was measured with plate reader (PHERAstar FS, BMG). The potency of compounds was calculated based on the inhibition of luminescence signaling.
NIH3T3 cells (CRL-1658, ATCC) were maintained in DMEM (11965, Gibico) supplemented with 10% FBS (Hyclone). GRE-Luc plasmid was generated by cloning 8×Gli-1 responsive element (GRE) into the MCS of pGL4.26 (Promega). NIH3T3-GRE-Luc reporter cell lines were established by hygromycin (Invitrogen) selection after transfection with GRE-Luc luciferase reporter plasmid. Single clones were validated for the assay quality with N-terminal fragment of recombinant sonic hedgehog protein or small molecule agonist SAG (ABIN629346). Selected clone were used to monitor the Hh signaling.
The NIH3T3-GRE-Luc cells were maintained in complete culture medium (DMEM with 4 mM L-Gln, 1.5 g/L sodium bicarbonate and 4.5 g/L glucose supplemented with 100 ug/ml hygromycin and 10% FBS). When confluent, the cells were trypsinized and resuspended in assay medium (0.5% serum-containing DMEM). After 100 ul/well of cells suspension was added to the 96-well-plate (Final cell concentration is 15,000 cells/well), cells were cultured for additional 48 hours before adding the compounds.
Compounds were serially diluted in DMSO and further diluted with assay medium. In an embodiment, 10 nM SAG was added in assay medium as the agonist of Hh signaling. After the compounds and agonist were prepared, carefully remove medium (Aspirate the medium with pipette instead of vacuum, or else the NIH3T3 cells monolayer will be detached). 100 ul of assay medium containing compound or agonist was added to the cell with care. Cell plates were incubated at 37 degree for additional 48 hours.
Following the 48 hours incubation, 40 ul/well of luciferase media (Brigh-Glo, Promega) was added to the cells. The plate was incubated at room temperature for 5 min under gentle shaking. Luminescence signal was measured with plate reader (PHERAstar FS, BMG). The potency of compounds was calculated basing on the inhibition of luminescence signaling.
On the technique in general: Reporter assays use an easily measured gene product as a stand-in for the process of interest.

The test system of assay [2] is Hh signaling pathway. The following applies: cited from earlier work.
[3] abbreviates: IC50 value of Vismodegib over that of the tested compound in the same assay.
The mark [4] stands for this setting: primary assay, Table 5, read-out: SMO IC50.

The structures appear in SMILES notation. Values joined by “and” are separate entries in the source; they are usually repeats but may differ in a detail not shown here. Equal values may be shown once. Read-outs that look alike come from different tables or passages of the source.

As a reminder, the IC50 is the concentration that gives 50% inhibition. `Cc1cnc(-c2cc(N3CCc4nc(N5CCC(O)C5)ncc4C3=O)ncc2Cl)c(C)c1` (stereo not drawn) [C]: the Ratio in the assay on Hh signaling pathway [1] (setting [3]) is listed as 0.16. Besides, in the assay on Hh signaling pathway [1] (setting [4]), the IC50 stood at 272 nM.

With `Cc1cnc(-c2cc(N3CCc4nc(N5CCC(O)CC5)ncc4C3=O)ncc2Cl)c(C)c1` [Compound A-97], the “ratio to vismodegib (relative efficacy), WO2014113191A1” value in the assay on Hh signaling pathway [2] (previous patent) was “about 0.5 fold”; with Hh signaling pathway [2] (previous patent, listed as A97) it was 0.54 fold. In addition, in the assay on Hh signaling pathway [2] (previous patent, read-out: IC50 of NIH3T3-GRE-Luc, reported in WO2014113191A1), the half-inhibitory concentration (IC50) is 84 nM.

Turning to `Cc1cnc(-c2cc(N3CCc4nc(N5CCC(O)CC5)ncc4[C@@H]3C)ncc2Cl)c(C)c1` [Compound B2, (S)-1-(6-(5′-chloro-3,5-dimethyl-[2,4′-bipyridin]-2′-yl)-5-methyl-5,6,7,8-tetrahydropyrido[4,3-d]pyrimidin-2-yl)piperidin-4-ol], the “Hh pathway inhibitory activity (in words)” value in the assay with Hh signaling pathway [1] was “relatively poor”. Further, the IC50 amounted to 17 nM in the assay with Hh signaling pathway [1] (48 h, 10 nM SAG as agonist, 48 hours, read-out: Effect IC50 (nM)(GRE reporter assay)) and 17 nM in the assay with Hh signaling pathway [1] (setting [4]). Also, the Ratio in the assay with Hh signaling pathway [1] (IC50 of vismodegib over that of the tested compound in the same assay) and in the assay with Hh signaling pathway [1] (setting [3]) was 1.1 in each case.

Consider `Cc1cnc(-c2cc(N3CCc4nc(NC5CC5)ncc4[C@@H]3C)ncc2Cl)c(C)c1` [Compound B3, (5 S)-6-[5-chloro-4-(3,5-dimethyl-2-pyridyl)-2-pyridyl]-N-cyclopropyl-5-methyl-7,8-dihydro-5H-pyrido[4,3-d]pyrimidin-2-amine], for which, in the assay with Hh signaling pathway [1] (setting [3]), the Ratio worked out at 3.1. The IC50 with Hh signaling pathway [1] (setting [4]) stood at 4 nM.

Regarding `Cc1cnc(-c2cc(N3CCc4nc(NC5CC5)ncc4[C@H]3C)ncc2Cl)c(C)c1` [Compound B4, (R)-6-(5′-Chloro-3,5-dimethyl-[2,4′-bipyridin]-2′-yl)-N-cyclopropyl-5-methyl-5,6,7,8-tetrahydropyrido[4,3-d]pyrimidin-2-amine], in the assay with Hh signaling pathway [1] (setting [3]), the Ratio is on record as 8.1. In addition, the IC50 in the assay with Hh signaling pathway [1] (setting [4]) turned out to be 2.2 nM.

`CCC(=O)Nc1ncc2c(n1)CCN(c1cc(-c3ncc(C)cc3C)c(Cl)cn1)[C@@H]2C` [Compound B5, (R)—N-(6-(5′-chloro-3,5-dimethyl-[2,4′-bipyridin]-2′-yl)-5-methyl-5,6,7,8-tetrahydropyrido[4,3-d]pyrimidin-2-yl)propionamide]: in the assay with Hh signaling pathway [1] (setting [3]), the Ratio was 0.35. Further, the IC50 with Hh signaling pathway [1] (setting [4]) is 75 nM.

As to `Cc1cnc(-c2cc(N3CCc4nc(NC(=O)C(C)(C)C)ncc4[C@H]3C)ncc2Cl)c(C)c1` [Compound B6, (R)—N-(6-(5′-chloro-3,5-dimethyl-[2,4′-bipyridin]-2′-yl)-5-methyl-5,6,7,8-tetrahydropyrido[4,3-d]pyrimidin-2-yl)pivalamide], the Ratio with Hh signaling pathway [1] (setting [3]) is recorded as 6.7. Moreover, the IC50 in the assay on Hh signaling pathway [1] (setting [4]) is 3.9 nM.

Take `Cc1cnc(-c2cc(N3CCc4nc(N5CCC(O)C5)ncc4C3C)ncc2Cl)c(C)c1` (stereo not drawn) [D]: the Ratio in the assay on Hh signaling pathway [1] (setting [3]) is 3.2. The IC50 in the assay on Hh signaling pathway [1] (setting [4]) amounted to 4.2 nM.

In the case of `Cc1cnc(-c2cc(N3CCc4nc(NCC5CC5)ncc4C3C)ncc2Cl)c(C)c1` (stereo not drawn) [E], in the assay on Hh signaling pathway [1] (setting [3]), the Ratio is on record as 1.74. Further, the IC50 with Hh signaling pathway [1] (setting [4]) was 7.7 nM.

As for `Cc1cnc(-c2cc(N3CCc4nc(NC5CC5)ncc4C3C)ncc2Cl)c(C)c1` (stereo not drawn) [F], the Ratio in the assay with Hh signaling pathway [1] (setting [3]) was 4.5. Also, the IC50 in the assay on Hh signaling pathway [1] (setting [4]) worked out at 4.4 nM.

As to `CS(=O)(=O)c1ccc(C(=O)Nc2ccc(Cl)c(-c3ccccn3)c2)c(Cl)c1` [vismodegib, reference compound], the IC50 with Hh signaling pathway [1] (vismodegib control in the same assay as the test compound of the line, read-out: Effect IC50 (nM)(GRE reporter assay: vismodegib)) is 13.4 nM and 17.9 nM and 19.3 nM; with Hh signaling pathway [1] (vismodegib control in the same assay as the test compound of the line, read-out: SMO IC50 (nM) (vismodegib)), 26 nM; in the assay with Hh signaling pathway [2] (reference in the run of A-55 (8.8) and of A-97 (45), read-out: IC50 of reference vismodegib, reported in WO2014113191A1) it was 8.8 nM and 45 nM.
